Values of other authors, collected in US20230233646A1, “METHOD OF TREATMENT OF CONGENITAL MYASTHENIC SYNDROME USING DOK7 GENE OR POLYPEPTIDE” (priority 2020, published 2023).

Tested on: peripheral cholinesterase enzyme

For `CN(C)C(=O)Oc1ccc[n+](C)c1` [Pyridostigmine], the “fraction of peripheral cholinesterase enzyme carbamylated” value is listed as “about 30%”.
